The structures appear in SMILES notation.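 Compound exposure: 48 hours, 5 concentrations, 96-well plates. TGI: total growth inhibition.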

The test system of one assay is 786-0 renal. As to the kind of experiment: NCI anticancer screen, dose series, 48 h.
`CCNC(=O)Cc1nc2c(N)ncnc2n1C1OC(CO)C(O)C1O` (stereo not drawn) had a TGI of over 100 µM.
Still for that read-out and setting: the value for `COC(=O)C1CCC(=O)N1C(c1ccc(OC)cc1)c1ccc2c(c1)OCO2` (stereo not drawn) was over 100 µM; that for `Cc1ccc(S(=O)(=O)N/N=C/C2(c3ccccc3)c3ccccc3-c3ccccc32)cc1` was 31.2 µM; that for `NC1=NCC(CN2CCOCC2)O1` (stereo not drawn) was over 100 µM.
The molecule `CC1=NN(c2cccc(Cl)c2)C2(C1=C/C=C/c1ccccc1)C(Cl)C(=O)N2c1nc2ccccc2s1` (stereo not drawn) showed a TGI of over 55 µM.
As for `NS(=O)(=O)c1cc(Cl)c(NC(=S)NC(=O)Nc2ccc(Cl)c(Cl)c2)c(Cl)c1`, the TGI was over 100 µM.
On the same count and under the same terms, the value for `Cc1ccc(-c2[nH]c(=O)n(C3OC(CO)C(O)C(O)C3O)c(=O)c2C#N)cc1` (stereo not drawn) was over 100 µM; that for `COc1cccc2c(=O)oc(-c3ccc(C(C)(C)C)cc3)nc12` was over 100 µM.

The next assay has as its system A498 renal. Put plainly: NCI anticancer screen, dose series, 48 h.
Turning to `CCNC(=O)Cc1nc2c(N)ncnc2n1C1OC(CO)C(O)C1O` (stereo not drawn), the TGI is over 100 µM.
On the same count and under the same terms, for `COC(=O)C1CCC(=O)N1C(c1ccc(OC)cc1)c1ccc2c(c1)OCO2` (stereo not drawn) the value was over 100 µM.
Molecule `Cc1ccc(S(=O)(=O)N/N=C/C2(c3ccccc3)c3ccccc3-c3ccccc32)cc1` came in with a TGI of 33 µM.
In turn, `NC1=NCC(CN2CCOCC2)O1` (stereo not drawn) had a TGI of over 100 µM.
Still for that read-out and setting: the value for `CC1=NN(c2cccc(Cl)c2)C2(C1=C/C=C/c1ccccc1)C(Cl)C(=O)N2c1nc2ccccc2s1` (stereo not drawn) was over 66 µM; that for `NS(=O)(=O)c1cc(Cl)c(NC(=S)NC(=O)Nc2ccc(Cl)c(Cl)c2)c(Cl)c1` was 84.4 µM.
As for `Cc1ccc(-c2[nH]c(=O)n(C3OC(CO)C(O)C(O)C3O)c(=O)c2C#N)cc1` (stereo not drawn), the TGI is over 100 µM.
The same measure, in the same setting: for `COc1cccc2c(=O)oc(-c3ccc(C(C)(C)C)cc3)nc12` the value was over 100 µM.

The next assay relates to CAKI-1 renal. Put plainly: NCI anticancer screen, dose series, 48 h.
`CCNC(=O)Cc1nc2c(N)ncnc2n1C1OC(CO)C(O)C1O` (stereo not drawn) displayed a TGI of over 100 µM.
In the case of `COC(=O)C1CCC(=O)N1C(c1ccc(OC)cc1)c1ccc2c(c1)OCO2` (stereo not drawn), the TGI is over 100 µM.
The same measure, in the same setting: for `Cc1ccc(S(=O)(=O)N/N=C/C2(c3ccccc3)c3ccccc3-c3ccccc32)cc1` the value was 62.4 µM; for `NC1=NCC(CN2CCOCC2)O1` (stereo not drawn), over 100 µM.
The same measure, in the same setting: for `CC1=NN(c2cccc(Cl)c2)C2(C1=C/C=C/c1ccccc1)C(Cl)C(=O)N2c1nc2ccccc2s1` (stereo not drawn) the value was over 49.8 µM; for `NS(=O)(=O)c1cc(Cl)c(NC(=S)NC(=O)Nc2ccc(Cl)c(Cl)c2)c(Cl)c1`, over 100 µM; for `Cc1ccc(-c2[nH]c(=O)n(C3OC(CO)C(O)C(O)C3O)c(=O)c2C#N)cc1` (stereo not drawn), over 100 µM.
Still for that read-out and setting: the value for `COc1cccc2c(=O)oc(-c3ccc(C(C)(C)C)cc3)nc12` was over 100 µM.

Another assay has as its system HT29 colon. Put plainly: NCI anticancer screen, dose series, 48 h.
Turning to `CCNC(=O)Cc1nc2c(N)ncnc2n1C1OC(CO)C(O)C1O` (stereo not drawn), the TGI is over 100 µM.
Still for that read-out and setting: the value for `COC(=O)C1CCC(=O)N1C(c1ccc(OC)cc1)c1ccc2c(c1)OCO2` (stereo not drawn) was over 100 µM; that for `Cc1ccc(S(=O)(=O)N/N=C/C2(c3ccccc3)c3ccccc3-c3ccccc32)cc1` was 26.3 µM; that for `NC1=NCC(CN2CCOCC2)O1` (stereo not drawn) was over 100 µM.
On the same count and under the same terms, for `CC1=NN(c2cccc(Cl)c2)C2(C1=C/C=C/c1ccccc1)C(Cl)C(=O)N2c1nc2ccccc2s1` (stereo not drawn) the value was over 100 µM; for `NS(=O)(=O)c1cc(Cl)c(NC(=S)NC(=O)Nc2ccc(Cl)c(Cl)c2)c(Cl)c1`, over 100 µM.
The same measure, in the same setting: for `Cc1ccc(-c2[nH]c(=O)n(C3OC(CO)C(O)C(O)C3O)c(=O)c2C#N)cc1` (stereo not drawn) the value was over 100 µM; for `COc1cccc2c(=O)oc(-c3ccc(C(C)(C)C)cc3)nc12`, over 100 µM.

Another assay deals with OVCAR-8 ovarian. Put plainly: NCI anticancer screen, dose series, 48 h.
`CCNC(=O)Cc1nc2c(N)ncnc2n1C1OC(CO)C(O)C1O` (stereo not drawn) returned a TGI of over 100 µM.
Consider `COC(=O)C1CCC(=O)N1C(c1ccc(OC)cc1)c1ccc2c(c1)OCO2` (stereo not drawn), for which the TGI was over 100 µM.
Same read-out and setting: for `Cc1ccc(S(=O)(=O)N/N=C/C2(c3ccccc3)c3ccccc3-c3ccccc32)cc1` the value was 31.5 µM; for `NC1=NCC(CN2CCOCC2)O1` (stereo not drawn), over 100 µM; for `CC1=NN(c2cccc(Cl)c2)C2(C1=C/C=C/c1ccccc1)C(Cl)C(=O)N2c1nc2ccccc2s1` (stereo not drawn), 62.2 µM.
The same measure, in the same setting: for `NS(=O)(=O)c1cc(Cl)c(NC(=S)NC(=O)Nc2ccc(Cl)c(Cl)c2)c(Cl)c1` the value was over 100 µM.
Molecule `Cc1ccc(-c2[nH]c(=O)n(C3OC(CO)C(O)C(O)C3O)c(=O)c2C#N)cc1` (stereo not drawn) gave a TGI of over 100 µM.
Molecule `COc1cccc2c(=O)oc(-c3ccc(C(C)(C)C)cc3)nc12` came in with a TGI of over 100 µM.

A further assay relates to SF-268 CNS. Put plainly: NCI anticancer screen, dose series, 48 h.
With `CCNC(=O)Cc1nc2c(N)ncnc2n1C1OC(CO)C(O)C1O` (stereo not drawn), the TGI was over 100 µM.
Take `COC(=O)C1CCC(=O)N1C(c1ccc(OC)cc1)c1ccc2c(c1)OCO2` (stereo not drawn): the TGI was over 100 µM.
The same measure, in the same setting: for `Cc1ccc(S(=O)(=O)N/N=C/C2(c3ccccc3)c3ccccc3-c3ccccc32)cc1` the value was 52.7 µM.
`NC1=NCC(CN2CCOCC2)O1` (stereo not drawn): the TGI was over 100 µM.
The same measure, in the same setting: the value for `CC1=NN(c2cccc(Cl)c2)C2(C1=C/C=C/c1ccccc1)C(Cl)C(=O)N2c1nc2ccccc2s1` (stereo not drawn) was 56.1 µM; that for `NS(=O)(=O)c1cc(Cl)c(NC(=S)NC(=O)Nc2ccc(Cl)c(Cl)c2)c(Cl)c1` was over 100 µM.
The same measure, in the same setting: the value for `Cc1ccc(-c2[nH]c(=O)n(C3OC(CO)C(O)C(O)C3O)c(=O)c2C#N)cc1` (stereo not drawn) was over 100 µM; that for `COc1cccc2c(=O)oc(-c3ccc(C(C)(C)C)cc3)nc12` was over 100 µM.

Another assay concerns SF-539 CNS. As to the kind of experiment: NCI anticancer screen, dose series, 48 h.
For `CCNC(=O)Cc1nc2c(N)ncnc2n1C1OC(CO)C(O)C1O` (stereo not drawn), the TGI was over 100 µM.
The molecule `COC(=O)C1CCC(=O)N1C(c1ccc(OC)cc1)c1ccc2c(c1)OCO2` (stereo not drawn) registered a TGI of 98.6 µM.
Turning to `Cc1ccc(S(=O)(=O)N/N=C/C2(c3ccccc3)c3ccccc3-c3ccccc32)cc1`, the TGI was determined as 30.9 µM.
`NC1=NCC(CN2CCOCC2)O1` (stereo not drawn) returned a TGI of over 100 µM.
Consider `CC1=NN(c2cccc(Cl)c2)C2(C1=C/C=C/c1ccccc1)C(Cl)C(=O)N2c1nc2ccccc2s1` (stereo not drawn), for which the TGI is over 86.1 µM.
Take `NS(=O)(=O)c1cc(Cl)c(NC(=S)NC(=O)Nc2ccc(Cl)c(Cl)c2)c(Cl)c1`: the TGI stood at 90.7 µM.
Turning to `Cc1ccc(-c2[nH]c(=O)n(C3OC(CO)C(O)C(O)C3O)c(=O)c2C#N)cc1` (stereo not drawn), the TGI was over 100 µM.
On the same count and under the same terms, the value for `COc1cccc2c(=O)oc(-c3ccc(C(C)(C)C)cc3)nc12` was over 100 µM.

In the next assay the test system is SK-MEL-2 melanoma. As to the kind of experiment: NCI anticancer screen, dose series, 48 h.
Take `CCNC(=O)Cc1nc2c(N)ncnc2n1C1OC(CO)C(O)C1O` (stereo not drawn): the TGI was over 100 µM.
Same read-out and setting: for `COC(=O)C1CCC(=O)N1C(c1ccc(OC)cc1)c1ccc2c(c1)OCO2` (stereo not drawn) the value was over 100 µM; for `Cc1ccc(S(=O)(=O)N/N=C/C2(c3ccccc3)c3ccccc3-c3ccccc32)cc1`, 25.9 µM; for `NC1=NCC(CN2CCOCC2)O1` (stereo not drawn), over 100 µM.
The molecule `CC1=NN(c2cccc(Cl)c2)C2(C1=C/C=C/c1ccccc1)C(Cl)C(=O)N2c1nc2ccccc2s1` (stereo not drawn) registered a TGI of 40.1 µM.
Regarding `NS(=O)(=O)c1cc(Cl)c(NC(=S)NC(=O)Nc2ccc(Cl)c(Cl)c2)c(Cl)c1`, the TGI worked out at 90.6 µM.
Still for that read-out and setting: for `Cc1ccc(-c2[nH]c(=O)n(C3OC(CO)C(O)C(O)C3O)c(=O)c2C#N)cc1` (stereo not drawn) the value was over 100 µM; for `COc1cccc2c(=O)oc(-c3ccc(C(C)(C)C)cc3)nc12`, over 100 µM.

For a further assay, the system named is TK-10 renal. Put plainly: NCI anticancer screen, dose series, 48 h.
For the molecule `CCNC(=O)Cc1nc2c(N)ncnc2n1C1OC(CO)C(O)C1O` (stereo not drawn), the TGI is over 100 µM.
On the same count and under the same terms, for `COC(=O)C1CCC(=O)N1C(c1ccc(OC)cc1)c1ccc2c(c1)OCO2` (stereo not drawn) the value was over 100 µM; for `Cc1ccc(S(=O)(=O)N/N=C/C2(c3ccccc3)c3ccccc3-c3ccccc32)cc1`, 98.5 µM; for `NC1=NCC(CN2CCOCC2)O1` (stereo not drawn), over 100 µM.
Same read-out and setting: for `CC1=NN(c2cccc(Cl)c2)C2(C1=C/C=C/c1ccccc1)C(Cl)C(=O)N2c1nc2ccccc2s1` (stereo not drawn) the value was over 100 µM; for `NS(=O)(=O)c1cc(Cl)c(NC(=S)NC(=O)Nc2ccc(Cl)c(Cl)c2)c(Cl)c1`, over 100 µM; for `Cc1ccc(-c2[nH]c(=O)n(C3OC(CO)C(O)C(O)C3O)c(=O)c2C#N)cc1` (stereo not drawn), over 100 µM.
On the same count and under the same terms, for `COc1cccc2c(=O)oc(-c3ccc(C(C)(C)C)cc3)nc12` the value was over 100 µM.

The subject of the next assay is U251 CNS. As to the kind of experiment: NCI anticancer screen, dose series, 48 h.
In turn, `CCNC(=O)Cc1nc2c(N)ncnc2n1C1OC(CO)C(O)C1O` (stereo not drawn) returned a TGI of over 100 µM.
Still for that read-out and setting: the value for `COC(=O)C1CCC(=O)N1C(c1ccc(OC)cc1)c1ccc2c(c1)OCO2` (stereo not drawn) was over 100 µM; that for `Cc1ccc(S(=O)(=O)N/N=C/C2(c3ccccc3)c3ccccc3-c3ccccc32)cc1` was 26.7 µM.
On to `NC1=NCC(CN2CCOCC2)O1` (stereo not drawn), for which the TGI is over 100 µM.
Still for that read-out and setting: the value for `CC1=NN(c2cccc(Cl)c2)C2(C1=C/C=C/c1ccccc1)C(Cl)C(=O)N2c1nc2ccccc2s1` (stereo not drawn) was 37.2 µM; that for `NS(=O)(=O)c1cc(Cl)c(NC(=S)NC(=O)Nc2ccc(Cl)c(Cl)c2)c(Cl)c1` was over 100 µM; that for `Cc1ccc(-c2[nH]c(=O)n(C3OC(CO)C(O)C(O)C3O)c(=O)c2C#N)cc1` (stereo not drawn) was over 100 µM.
Consider `COc1cccc2c(=O)oc(-c3ccc(C(C)(C)C)cc3)nc12`, for which the TGI is over 100 µM.

In a further assay the test system is UACC-62 melanoma. Put plainly: NCI anticancer screen, dose series, 48 h.
As for `CCNC(=O)Cc1nc2c(N)ncnc2n1C1OC(CO)C(O)C1O` (stereo not drawn), the TGI was over 100 µM.
Same read-out and setting: the value for `COC(=O)C1CCC(=O)N1C(c1ccc(OC)cc1)c1ccc2c(c1)OCO2` (stereo not drawn) was over 100 µM; that for `Cc1ccc(S(=O)(=O)N/N=C/C2(c3ccccc3)c3ccccc3-c3ccccc32)cc1` was 27.3 µM; that for `NC1=NCC(CN2CCOCC2)O1` (stereo not drawn) was over 100 µM.
`CC1=NN(c2cccc(Cl)c2)C2(C1=C/C=C/c1ccccc1)C(Cl)C(=O)N2c1nc2ccccc2s1` (stereo not drawn) had a TGI of over 100 µM.
In turn, `NS(=O)(=O)c1cc(Cl)c(NC(=S)NC(=O)Nc2ccc(Cl)c(Cl)c2)c(Cl)c1` gave a TGI of 90.2 µM.
On the same count and under the same terms, for `Cc1ccc(-c2[nH]c(=O)n(C3OC(CO)C(O)C(O)C3O)c(=O)c2C#N)cc1` (stereo not drawn) the value was over 100 µM; for `COc1cccc2c(=O)oc(-c3ccc(C(C)(C)C)cc3)nc12`, over 100 µM.

Values taken from PubChem BioAssay (NCI).
